Experimental data as given in patent publication US12637425B2, “Compounds and formulations for treating ophthalmic diseases” (Visus Therapeutics, Inc., priority 2020, dated 2026).

Target: T1, Recombinant cryAB(R120G) protein (Homo sapiens, UniProt P02511, R120G)
T1 sequence (P02511 1-175 R120G): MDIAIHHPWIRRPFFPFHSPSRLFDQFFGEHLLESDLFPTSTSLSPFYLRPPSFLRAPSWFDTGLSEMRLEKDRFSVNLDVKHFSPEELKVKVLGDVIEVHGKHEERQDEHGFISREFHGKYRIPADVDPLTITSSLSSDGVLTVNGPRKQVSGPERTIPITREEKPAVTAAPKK
Experiment: Kinetic turbidity aggregation assay of recombinant cryAB(R120G)
Assay type: biochemical
Details: for inhibition at 25 µM: 25 μM compound, read-out: % Inhibition of Protein Aggregation, 25 μM cmpd; for inhibition at 25 µM / inhibition at 100 µM / inhibition at 400 µM: 15 μM cryAB(R120G), 42° C., absorbance at 550 nm; for inhibition at 100 µM: 100 μM compound, read-out: % Inhibition of Protein Aggregation, 100 μM cmpd; for IC50: inhibition of cryAB(R120G) protein aggregation; for inhibition at 400 µM: 400 μM compound, read-out: % Inhibition of Protein Aggregation, 400 μM cmpd
Experimental: Example A-1: Kinetic Turbidity Aggregation Assay of Recombinant cryAB(R120)
Recombinant cryAB(R120G) protein was diluted to 100 μM in assay buffer (50 mM Tris, 100 mM NaCl, 5 mM DTT, 0.01% Triton X-100, 0.05% PEG-8000). Compounds were dissolved in DMSO at 10 mM then typically diluted to 2.5 mM in DMSO and serially diluted 2-fold as necessary. To a 384-well black microplate in quadruplicate was added 81 μL assay buffer, followed by 15 μL protein solution, and 4 μL compound to give a final concentration of 15 μM cryAB(R120G) protein in 4% DMSO. […] N.D. is not determined.

inhibition at 25 µM | inhibition at 100 µM | IC50 | inhibition at 400 µM | SMILES
18% | 82.5% |  |  | CN1CCN(C(CNS(=O)(=O)c2ccc3cc[nH]c3c2)c2cn(C)c3ccccc23)CC1 (centres unmarked) [Compound 39, N-(2-(1-methyl-1H-indol-3-yl)-2-(4-methylpiperazin-1-yl)ethyl)-1H-indole-6-sulfonamide]
8% | 98.7% |  |  | O=S(=O)(NC[C@@H](c1cnc2ccccn12)N1CCCC1)c1ccc2cc[nH]c2c1 [Compound 79, (S)-N-(2-(imidazo[1,2-a]pyridin-3-yl)-2-(pyrrolidin-1-yl)ethyl)-1H-indole-6-sulfonamide]
82% | 99.7% | ≤ 10 µM |  | Cn1cc(C(CNS(=O)(=O)c2ccc3cc[nH]c3c2)N2CC[C@@H](O)C2)c2ccccc21 (stereo partly drawn) [Compound 44, N-(2-((R)-3-hydroxypyrrolidin-1-yl)-2-(1-methyl-1H-indol-3-yl)ethyl)-1H-indole-6-sulfonamide]
1% | 26% |  |  | Cn1cc([C@H](CNS(=O)(=O)c2ccc3cc[nH]c3c2)N2CCCC2)c2ccncc21 [Compound 83, (R)-N-(2-(1-methyl-1H-pyrrolo[2,3-c]pyridin-3-yl)-2-(pyrrolidin-1-yl)ethyl)-1H-indole-6-sulfonamide]
2% | 49.8% |  |  | Cn1cc([C@H](CNS(=O)(=O)c2ccc3cc[nH]c3c2)N2CC[C@@H](c3ccccc3)C2)c2ccccc21 [Compound 59, N-((R)-2-(1-methyl-1H-indol-3-yl)-2-((S)-3-phenylpyrrolidin-1-yl)ethyl)-1H-indole-6-sulfonamide]
-45% | 58.8% |  |  | COc1ccc2[nH]ccc2c1S(=O)(=O)NCC(c1cn(C)c2ccccc12)N(C)C (centres unmarked) [Compound 97, N-(2-(dimethylamino)-2-(1-methyl-1H-indol-3-yl)ethyl)-5-methoxy-1H-indole-4-sulfonamide]
57% | 94.9% |  |  | Cn1cc([C@@H](CNS(=O)(=O)c2ccc3cc[nH]c3c2)N2CC[C@H](c3ccccc3)C2)c2ccccc21 [Compound 60, N-((S)-2-(1-methyl-1H-indol-3-yl)-2-((R)-3-phenylpyrrolidin-1-yl)ethyl)-1H-indole-6-sulfonamide]
25% | 82.4% |  |  | CN(C)C(CNS(=O)(=O)c1ccc2cc[nH]c2c1)c1cccc2cccnc12 (centres unmarked) [Compound 57, N-(2-(dimethylamino)-2-(quinolin-8-yl)ethyl)-1H-indole-6-sulfonamide]
-37% | -29% |  | 74.3% | CN(C)C(CNS(=O)(=O)c1ccc2ccn(C)c2c1)c1cn(C)c2ccccc12 (centres unmarked) [Compound 8, N-(2-(dimethylamino)-2-(1-methyl-1H-indol-3-yl)ethyl)-1-methyl-1H-indole-6-sulfonamide]
88% | 99.4% | ≤ 10 µM | 95% | CCn1cc(C(CNS(=O)(=O)c2ccc3cc[nH]c3c2)N(C)C)c2ccccc21 (centres unmarked) [Compound 2, N-(2-(dimethylamino)-2-(1-ethyl-1H-indol-3-yl)ethyl)-1H-indole-6-sulfonamide]
27% | 82.8% |  |  | Cn1ccc2ccc(S(=O)(=O)NCC(c3cn(C)c4ccccc34)N3CCCC3)cc21 (centres unmarked) [Compound 33, 1-methyl-N-(2-(1-methyl-1H-indol-3-yl)-2-(pyrrolidin-1-yl)ethyl)-1H-indole-6-sulfonamide]
49% | 99.3% |  |  | CCn1nc([C@H](CNS(=O)(=O)c2ccc3cc[nH]c3c2)N2CCCC2)c2ccccc21 [Compound 92, (S)-N-(2-(1-ethyl-1H-indazol-3-yl)-2-(pyrrolidin-1-yl)ethyl)-1H-indole-6-sulfonamide]
25% | 99.2% |  |  | Cc1cc2cc[nH]c2cc1S(=O)(=O)NCC(c1cn(C)c2ccccc12)N(C)C (centres unmarked) [Compound 63, N-(2-(dimethylamino)-2-(1-methyl-1H-indol-3-yl)ethyl)-5-methyl-1H-indole-6-sulfonamide]
61.7% | 99.9% |  |  | Cc1ccc2c(C(CNS(=O)(=O)c3ccc4cc[nH]c4c3)N(C)C)cn(C)c2c1 (centres unmarked) [Compound 100, N-(2-(1,6-dimethyl-1H-indol-3-yl)-2-(dimethylamino)ethyl)-1H-indole-6-sulfonamide]
1% | 66.7% |  |  | Cn1cc([C@H](CNS(=O)(=O)c2ccc3cc[nH]c3c2)N2CC[C@H](c3ccccc3)C2)c2ccccc21 [Compound 61, N-((R)-2-(1-methyl-1H-indol-3-yl)-2-((R)-3-phenylpyrrolidin-1-yl)ethyl)-1H-indole-6-sulfonamide]
-12% | 23% |  |  | Cn1cc([C@H](CNS(=O)(=O)c2ccc3cc[nH]c3c2)N2CCCC2)c2cnccc21 [Compound 81, (R)-N-(2-(1-methyl-1H-pyrrolo[3,2-c]pyridin-3-yl)-2-(pyrrolidin-1-yl)ethyl)-1H-indole-6-sulfonamide]
-19% | 41.7% |  |  | CC(=O)N[C@H]1CCN(C(CNS(=O)(=O)c2ccc3cc[nH]c3c2)c2cn(C)c3ccccc23)C1 (stereo partly drawn) [Compound 35, N-((3S)-1-(2-(1H-indole-6-sulfonamido)-1-(1-methyl-1H-indol-3-yl)ethyl)pyrrolidin-3-yl)acetamide]
62% | 96.2% |  |  | Cn1cc(C(CNS(=O)(=O)c2ccc3cc[nH]c3c2)N2CCC(C)(C)C2)c2ccccc21 (centres unmarked) [Compound 52, N-(2-(3,3-dimethylpyrrolidin-1-yl)-2-(1-methyl-1H-indol-3-yl)ethyl)-1H-indole-6-sulfonamide]
76% | 99.6% |  |  | CN(C)C(CNS(=O)(=O)c1ccc2cc[nH]c2c1)c1cn(CC2COC2)c2ccccc12 (centres unmarked) [Compound 70, N-(2-(dimethylamino)-2-(1-(oxetan-3-ylmethyl)-1H-indol-3-yl)ethyl)-1H-indole-6-sulfonamide]
69% | 99.9% | 10 to 50 µM |  | Cn1cc(C(CNS(=O)(=O)c2ccc3cc[nH]c3c2)N2CCCCC2)c2ccccc21 (centres unmarked) [Compound 29, N-(2-(1-methyl-1H-indol-3-yl)-2-(piperidin-1-yl)ethyl)-1H-indole-6-sulfonamide]
99.7% | 83.9% | ≤ 10 µM |  | Cn1cc(C(CNS(=O)(=O)c2ccc3cc[nH]c3c2)N2CC[C@H](F)C2)c2ccccc21 (stereo partly drawn) [Compound 36, N-(2-((S)-3-fluoropyrrolidin-1-yl)-2-(1-methyl-1H-indol-3-yl)ethyl)-1H-indole-6-sulfonamide]
-4% | 63.1% |  |  | Cn1cc(C(CNS(=O)(=O)c2ccc3cc[nH]c3c2)N2CCN(CCO)CC2)c2ccccc21 (centres unmarked) [Compound 46, N-(2-(4-(2-hydroxyethyl)piperazin-1-yl)-2-(1-methyl-1H-indol-3-yl)ethyl)-1H-indole-6-sulfonamide]
88% | 100% |  |  | C[C@@H]1CCN([C@@H](CNS(=O)(=O)c2ccc3cc[nH]c3c2)c2cn(C)c3ccccc23)C1 [Compound 77, N-((R)-2-(1-methyl-1H-indol-3-yl)-2-((R)-3-methylpyrrolidin-1-yl)ethyl)-1H-indole-6-sulfonamide]
58% | 100% |  |  | CN(C)C(CNS(=O)(=O)c1ccc2cc[nH]c2c1)c1cn(Cc2cncs2)c2ccccc12 (centres unmarked) [Compound 69, N-(2-(dimethylamino)-2-(1-(thiazol-5-ylmethyl)-1H-indol-3-yl)ethyl)-1H-indole-6-sulfonamide]
-6% | -20% |  | 20.5% | CN(C)C(CNS(=O)(=O)c1ccc2ncsc2c1)c1cn(C)c2ccccc12 (centres unmarked) [Compound 11, N-(2-(dimethylamino)-2-(1-methyl-1H-indol-3-yl)ethyl)benzo[d]thiazole-6-sulfonamide]
60% | 58.8% |  |  | COc1cc2cc[nH]c2cc1S(=O)(=O)NCC(c1cn(C)c2ccccc12)N(C)C (centres unmarked) [Compound 96, N-(2-(dimethylamino)-2-(1-methyl-1H-indol-3-yl)ethyl)-5-methoxy-1H-indole-6-sulfonamide]
49% | 99.2% |  | 93.4% | CN(C)C(CNS(=O)(=O)c1ccc2cc[nH]c2c1)c1cn(C)c2ccc(F)cc12 (centres unmarked) [Compound 20, N-(2-(dimethylamino)-2-(5-fluoro-1-methyl-1H-indol-3-yl)ethyl)-1H-indole-6-sulfonamide]
92.8% | 99.9% | ≤ 10 µM |  | CCN(C)C(CNS(=O)(=O)c1ccc2cc[nH]c2c1)c1cn(C)c2ccccc12 (centres unmarked) [Compound 37, N-(2-(ethyl(methyl)amino)-2-(1-methyl-1H-indol-3-yl)ethyl)-1H-indole-6-sulfonamide]
57% | 99.8% | 10 to 50 µM |  | CCN(CC)C(CNS(=O)(=O)c1ccc2cc[nH]c2c1)c1cn(C)c2ccccc12 (centres unmarked) [Compound 38, N-(2-(diethylamino)-2-(1-methyl-1H-indol-3-yl)ethyl)-1H-indole-6-sulfonamide]
